# Assay results from PubChem BioAssay (NCI).
#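 Five compound concentrations were applied to cells in 96-well plates for 48 hours; endpoints were derived by simple linear interpolation of the resulting dose-response curve. Here, GI50 denotes the concentration required for 50% inhibition of growth. TGI is the concentration that stops growth completely.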
# Columns and labels:
# Assay in all cases: growth of human tumour cells (NCI), 48 h
# [1] = system: HCC-2998 colon
# [2] = system: HCT-15 colon
# [3] = system: HL-60(TB) leukemia
# [4] = system: HOP-92 NSCLC
# [5] = system: MOLT-4 leukemia
# [6] = system: NCI-H23 lung
# [7] = system: OVCAR-3 ovarian
# [8] = system: OVCAR-5 ovarian
# [9] = system: SK-MEL-28 melanoma
# [10] = system: T-47D breast
Compound,GI50 [1],TGI [1],GI50 [2],TGI [2],GI50 [3],TGI [3],GI50 [4],TGI [4],GI50 [5],TGI [5],GI50 [6],TGI [6],GI50 [7],TGI [7],GI50 [8],TGI [8],GI50 [9],TGI [9],GI50 [10],TGI [10]
O=c1c2c(=NCCN3CCCC3)cc3c(=O)n(CCCN4CCOCC4)c(=O)c4c(-c5ccc(CN6CCCC6)cc5)cc(c(O)n1CCCN1CCOCC1)c2c4-3,0.0556 µM,0.284 µM,0.0664 µM,1.11 µM,0.231 µM,1.64 µM,0.0178 µM,0.0735 µM,< 0.0206 µM,5.37 µM,0.0261 µM,0.158 µM,0.0244 µM,0.109 µM,0.0847 µM,0.724 µM,0.156 µM,0.557 µM,0.1 µM,0.897 µM
CCOC(=O)c1ccc(NC(=O)Nc2nncs2)cc1,0.571 µM,8.24 µM,0.0688 µM,> 100 µM,0.106 µM,6.7 µM,–,0.947 µM,0.384 µM,> 48.7 µM,0.649 µM,12.1 µM,0.0963 µM,0.415 µM,0.78 µM,> 100 µM,0.25 µM,56 µM,0.584 µM,34.4 µM
C/C(=N\NC(=S)N1CCCCC1)c1ccccn1,0.243 µM,6.93 µM,< 0.0169 µM,12.6 µM,0.0527 µM,2.64 µM,0.0963 µM,4.54 µM,0.0175 µM,1.69 µM,< 0.01 µM,9.71 µM,< 0.01 µM,1.69 µM,0.054 µM,13.7 µM,1.13 µM,6.66 µM,< 0.01 µM,5.15 µM
O=Nc1ccc(O)c(=O)cc1,3.35 µM,13.5 µM,2.37 µM,9.62 µM,0.547 µM,2.59 µM,0.998 µM,3.39 µM,0.821 µM,20.8 µM,3.04 µM,12 µM,1.39 µM,5.07 µM,5.49 µM,17.8 µM,2.26 µM,7.02 µM,1.76 µM,4.28 µM
COc1ccc2c(c1OC)C[C@@H]1c3c(cc4c(c3-2)OCO4)CCN1C,–,40.3 µM,–,> 100 µM,–,27.2 µM,–,68.1 µM,–,47.4 µM,–,> 100 µM,–,> 100 µM,–,> 100 µM,–,> 100 µM,–,90.2 µM
COC[C@@H](N=C1NC(=O)/C(=C/c2ccc3ncccc3c2)S1)c1ccccc1,12.3 µM,> 25 µM,7.01 µM,> 25 µM,6.39 µM,19.2 µM,5.07 µM,> 21.1 µM,8.88 µM,> 25 µM,11.5 µM,> 25 µM,9.38 µM,> 25 µM,> 25 µM,> 25 µM,18.8 µM,> 25 µM,8.43 µM,> 25 µM
CCN1C(=S)N(c2ccccc2)C2NC(=S)N(/N=C/C=C/c3ccccc3OC)C21 (centres undefined),0.538 µM,> 100 µM,0.344 µM,> 100 µM,0.245 µM,0.6 µM,3.98 µM,> 100 µM,0.548 µM,> 100 µM,0.658 µM,> 100 µM,0.267 µM,0.721 µM,0.69 µM,> 100 µM,1.47 µM,> 100 µM,> 100 µM,> 100 µM
O=c1[nH]c2ccccc2c2ccccc12,> 100 µM,> 100 µM,> 100 µM,> 100 µM,> 100 µM,> 100 µM,39.8 µM,> 100 µM,> 100 µM,> 100 µM,> 100 µM,> 100 µM,> 100 µM,> 100 µM,> 100 µM,> 100 µM,> 100 µM,> 100 µM,> 100 µM,> 100 µM
